Results published in patent US20120225062A1 (priority 2011, published 2012).
pEC50, pIC50: −log10 of the molar value.

Key:
[1] = system: KMS11 (human myeloma cell line); assay: Cell Proliferation Assay (CellTiter-Glo, 3 days); format: cell-based; details: KMS-11, 72 h, KMS11-luc cells
Outline: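 EC50 from CellTiter-Glo luminescence after 3-day, 37° C compound treatment of KMS11 cells seeded at 2000 per well in IMDM plus 10% FBS.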

Pim 1 = Pim 1 (Homo sapiens, UniProt P11309); assay: Pim 1 AlphaScreen assay (high ATP)
Chain of Pim 1 (P11309 whole entry): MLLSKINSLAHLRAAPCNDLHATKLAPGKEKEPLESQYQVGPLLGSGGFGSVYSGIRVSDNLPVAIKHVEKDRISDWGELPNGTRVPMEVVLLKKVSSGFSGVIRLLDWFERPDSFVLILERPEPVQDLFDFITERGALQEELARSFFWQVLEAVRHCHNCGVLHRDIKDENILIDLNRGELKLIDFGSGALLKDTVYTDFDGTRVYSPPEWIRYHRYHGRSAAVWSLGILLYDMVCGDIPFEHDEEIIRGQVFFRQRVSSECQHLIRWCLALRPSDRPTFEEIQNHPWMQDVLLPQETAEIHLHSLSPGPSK
Method: (§1) The activity of Pim 1, Pim 2, & Pim 3 is measured using a homogeneous bead based system quantifying the amount of phosphorylated peptide substrate resulting from kinase-catalyzed phosphoryl transfer to a peptide substrate. Compounds to be tested are dissolved in 100% DMSO and directly distributed to a white 384-well plate at 0.25 μl per well. […] This is followed by the addition of 5 μl/well of Pim 1, Pim 2 or Pim 3 kinase in assay buffer (concentrations described below). Final assay concentrations (described below) are in 2.5% DMSO. The reactions are performed for ˜2 hours, then stopped by the addition of 10 μl of 0.75 μg/ml anti-phospho Ser/Thr antibody (Cell Signaling), 10 μg/ml Protein A AlphaScreen beads (Perkin Elmer), and 10 μg/ml streptavidin coated AlphaScreen beads in stop/detection buffer (50 mM EDTA, 95 mM Tris, pH=7.5, 0.01% Tween-20). The stopped reactions are incubated overnight in the dark. The phosphorylated peptide is detected via an oxygen anion initiated chemiluminescence/fluorescence cascade using the Envision plate reader (Perkin Elmer).

Pim 2 = Pim 2 (Homo sapiens, UniProt Q9P1W9); assay: Pim 2 AlphaScreen assay (high ATP)
Chain of Pim 2 (Q9P1W9 whole entry): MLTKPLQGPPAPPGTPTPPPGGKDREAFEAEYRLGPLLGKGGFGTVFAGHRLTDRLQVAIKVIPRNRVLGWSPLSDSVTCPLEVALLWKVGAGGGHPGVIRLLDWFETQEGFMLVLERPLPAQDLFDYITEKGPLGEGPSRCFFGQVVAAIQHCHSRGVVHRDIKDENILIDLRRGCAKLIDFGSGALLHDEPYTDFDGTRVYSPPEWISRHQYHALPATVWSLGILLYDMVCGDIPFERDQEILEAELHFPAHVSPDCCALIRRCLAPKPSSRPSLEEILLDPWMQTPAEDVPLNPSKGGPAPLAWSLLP

Pim 3 = Pim 3 (Homo sapiens, UniProt Q86V86); assay: Pim 3 AlphaScreen assay (high ATP)
Method: as §1

Row | SMILES | pEC50 [1] | pIC50 (Pim 1) | pIC50 (Pim 2) | pIC50 (Pim 3)
1 | C[C@H]1CN(c2ccncc2NC(=O)c2ccc(F)c(-c3c(F)cc(O[C@H]4CCCOC4)cc3F)n2)C[C@@H](N)[C@@H]1O [Example 106, N-(4-((3R,4R,5S)-3-amino-4-hydroxy-5-methylpiperidin-1-yl)pyridin-3-yl)-6-(2,6-difluoro-4-((S)-tetrahydro-2H-pyran-3-yloxy)phenyl)-5-fluoropicolinamide] | 6.81 | 11.00 | 9.28 | 9.89
2 | C[C@@H]1C[C@H](N)C[C@H](c2ccncc2NC(=O)c2ccc(F)c(-c3c(F)cc4c(c3F)OCC[C@]4(C)O)n2)C1 [Example 239, N-(4-((1R,3S,5S)-3-amino-5-methylcyclohexyl)pyridin-3-yl)-6-((S)-6,8-difluoro-4-hydroxy-4-methylchroman-7-yl)-5-fluoropicolinamide] | 7.51 | 11.00 | 8.76 | 8.96
3 | C[C@@H]1C[C@H](N)C[C@H](c2ccncc2NC(=O)c2ccc(F)c(-c3c(F)cc(C4(O)CCCC4)cc3F)n2)C1 [Example 163, N-(4-((1R,3S,5S)-3-amino-5-methylcyclohexyl)pyridin-3-yl)-6-(2,6-difluoro-4-(1-hydroxycyclopentyl)phenyl)-5-fluoropicolinamide] | 7.48 | 11.00 | 9.03 | 9.77
4 | COC1(c2cc(F)c(-c3nc(C(=O)Nc4cnccc4N4C[C@@H](N)[C@H](O)[C@@H](C)C4)ccc3F)c(F)c2)COC1 [Example 88, N-(4-((3R,4R,5S)-3-amino-4-hydroxy-5-methylpiperidin-1-yl)pyridin-3-yl)-6-(2,6-difluoro-4-(3-methoxyoxetan-3-yl)phenyl)-5-fluoropicolinamide] | 7.77 | 10.70 | 8.93 | 9.16
5 | C[C@@H]1C[C@H](N)C[C@H](c2ccncc2NC(=O)c2cccc(-c3c(F)cc(OC4CCOCC4)cc3F)n2)C1 [Example 187, N-(4-((1R,3S,5S)-3-amino-5-methylcyclohexyl)pyridin-3-yl)-6-(2,6-difluoro-4-(tetrahydro-2H-pyran-4-yloxy)phenyl)picolinamide] | 6.68 | 10.52 | 8.61 | 8.89
6 | C[C@@H]1C[C@H](N)C[C@H](c2ccncc2NC(=O)c2nc(-c3c(F)cc(C(C)(C)O)cc3F)c(F)cc2N)C1 [Example 100, 3-amino-N-(4-((1R,3S,5S)-3-amino-5-methylcyclohexyl)pyridin-3-yl)-6-(2,6-difluoro-4-(2-hydroxypropan-2-yl)phenyl)-5-fluoropicolinamide] | 7.92 | 11.00 | 9.28 | 9.89
7 | N#CC1(c2cc(F)c(-c3nc(C(=O)Nc4cnccc4[C@@H]4CCC[C@H](N)C4)ccc3F)c(F)c2)CCOCC1 [Example 172, N-(4-((1R,3S)-3-aminocyclohexyl)pyridin-3-yl)-6-(4-(4-cyanotetrahydro-2H-pyran-4-yl)-2,6-difluorophenyl)-5-fluoropicolinamide] | 6.39 | 10.10 | 7.53 | 7.71
8 | C[C@@H]1C[C@H](N)C[C@H](c2ccncc2NC(=O)c2cccc(-c3c(F)cc(C4CCOCC4)cc3F)n2)C1 [Example 192, N-(4-((1R,3S,5S)-3-amino-5-methylcyclohexyl)pyridin-3-yl)-6-(2,6-difluoro-4-(tetrahydro-2H-pyran-4-yl)phenyl)picolinamide] | 6.94 | 10.70 | 8.46 | 8.97
9 | COCCOc1cc(F)c(-c2cccc(C(=O)Nc3cnccc3[C@@H]3C[C@H](C)C[C@H](N)C3)n2)c(F)c1 [Example 188, N-(4-((1R,3S,5S)-3-amino-5-methylcyclohexyl)pyridin-3-yl)-6-(2,6-difluoro-4-(2-methoxyethoxy)phenyl)picolinamide] | 6.32 | 10.15 | 8.40 | 8.71
10 | C[C@H]1CN(c2ccncc2NC(=O)c2ccc(F)c(-c3c(F)cc(C4(F)CCOCC4)cc3F)n2)C[C@@H](N)[C@@H]1O [Example 195, N-(4-((3R,4R,5S)-3-amino-4-hydroxy-5-methylpiperidin-1-yl)pyridin-3-yl)-6-(2,6-difluoro-4-(4-fluorotetrahydro-2H-pyran-4-yl)phenyl)-5-fluoropicolinamide] | 7.44 | 11.00 | 9.41 | 9.74

Further lines, results first:

Row | pEC50 [1] | pIC50 (Pim 1) | pIC50 (Pim 2) | pIC50 (Pim 3) | SMILES
11 | 7.47 | 11.00 | 9.29 | 10.05 | C[C@H]1CN(c2ccncc2NC(=O)c2ccc(F)c(-c3c(F)cc(OCC4CC4)cc3F)n2)C[C@@H](N)[C@@H]1O [Example 92, N-(4-((3R,4R,5S)-3-amino-4-hydroxy-5-methylpiperidin-1-yl)pyridin-3-yl)-6-(4-(cyclopropylmethoxy)-2,6-difluorophenyl)-5-fluoropicolinamide]
12 | 7.64 | 10.52 | 8.70 | 9.19 | Cc1cc(F)c(-c2nc(C(=O)Nc3cnccc3[C@H]3C[C@@H](N)[C@H](O)[C@@H](C)C3)c(N)cc2F)c(F)c1 [Example 219, 3-amino-N-(4-((1R,3R,4R,5S)-3-amino-4-hydroxy-5-methylcyclohexyl)pyridin-3-yl)-6-(2,6-difluoro-4-methylphenyl)-5-fluoropicolinamide]
13 | 6.70 | 9.89 | 7.49 | 8.53 | COCCOc1ccc(F)c(-c2nc(C(=O)Nc3cnccc3[C@H]3C[C@@H](N)[C@H](O)[C@@H](C)C3)ccc2F)c1F [Example 18, N-(4-((1R,3R,4R,5S)-3-amino-4-hydroxy-5-methylcyclohexyl)pyridin-3-yl)-6-(2,6-difluoro-3-(2-methoxyethoxy)phenyl)-5-fluoropicolinamide]
14 | 6.64 | 9.89 | 8.02 | 8.31 | CCOCc1cc(F)c(-c2nc(C(=O)Nc3cnccc3[C@H]3C[C@@H](N)[C@@H](O)[C@@H](C)C3)ccc2F)c(F)c1 [Example 134, N-(4-((1R,3R,4S,5S)-3-amino-4-hydroxy-5-methylcyclohexyl)pyridin-3-yl)-6-(4-(ethoxymethyl)-2,6-difluorophenyl)-5-fluoropicolinamide]
15 | 6.61 | 10.70 | 8.56 | 8.86 | C[C@@H]1C[C@H](N)C[C@H](c2ccncc2NC(=O)c2ccc(F)c(-c3c(F)cc(OCC(F)(F)F)cc3F)n2)C1 [Example 196, N-(4-((1R,3S,5S)-3-amino-5-methylcyclohexyl)pyridin-3-yl)-6-(2,6-difluoro-4-(2,2,2-trifluoroethoxy)phenyl)-5-fluoropicolinamide]
16 | 7.28 | 10.52 | 8.72 | 9.26 | C[C@@H]1C[C@H](N)C[C@H](c2ccncc2NC(=O)c2ccc(F)c(-c3c(F)cc(OC[C@@H](O)CO)cc3F)n2)C1 [Example 3, N-(4-((1R,3S,5S)-3-amino-5-methylcyclohexyl)pyridin-3-yl)-6-(4-((S)-2,3-dihydroxypropoxy)-2,6-difluorophenyl)-5-fluoropicolinamide]
17 | 7.23 | 11.00 | 8.78 | 9.10 | C[C@@H]1C[C@H](N)C[C@H](c2ccncc2NC(=O)c2ccc(F)c(-c3c(F)cc([C@@H]4CCOC4)cc3F)n2)C1 [Example 206, N-(4-((1R,3S,5S)-3-amino-5-methylcyclohexyl)pyridin-3-yl)-6-(2,6-difluoro-4-((S)-tetrahydrofuran-3-yl)phenyl)-5-fluoropicolinamide]
18 | 6.06 | 10.40 | 8.22 | 8.77 | C[C@H]1C[C@@H](c2ccncc2NC(=O)c2ccc(F)c(-c3c(F)cc(OC4CCOCC4)cc3F)n2)C[C@@H](N)[C@H]1O [Example 140, N-(4-((1R,3R,4S,5S)-3-amino-4-hydroxy-5-methylcyclohexyl)pyridin-3-yl)-6-(2,6-difluoro-4-(tetrahydro-2H-pyran-4-yloxy)phenyl)-5-fluoropicolinamide]
19 | 6.23 | 10.30 | 8.34 | 8.35 | C[C@@H]1C[C@H](N)C[C@H](c2ccncc2NC(=O)c2ccc(F)c(-c3c(F)cc(C4(F)COC4)cc3F)n2)C1 [Example 135, N-(4-((1R,3S,5S)-3-amino-5-methylcyclohexyl)pyridin-3-yl)-6-(2,6-difluoro-4-(3-fluorooxetan-3-yl)phenyl)-5-fluoropicolinamide]
20 | 6.28 | 10.05 | 8.25 | 8.20 | CCOC(C)(C)c1cc(F)c(-c2nc(C(=O)Nc3cnccc3[C@H]3C[C@@H](N)[C@H](O)[C@@H](C)C3)ccc2F)c(F)c1 [Example 146, N-(4-((1R,3R,4R,5S)-3-amino-4-hydroxy-5-methylcyclohexyl)pyridin-3-yl)-6-(4-(2-ethoxypropan-2-yl)-2,6-difluorophenyl)-5-fluoropicolinamide]
21 | 5.61 | 9.59 | 7.23 | 7.53 | Cc1noc(C)c1-c1cc(F)c(-c2nc(C(=O)Nc3cnccc3[C@H]3C[C@@H](N)[C@H](O)[C@@H](C)C3)ccc2F)c(F)c1 [Example 173, N-(4-((1R,3R,4R,5S)-3-amino-4-hydroxy-5-methylcyclohexyl)pyridin-3-yl)-6-(4-(3,5-dimethylisoxazol-4-yl)-2,6-difluorophenyl)-5-fluoropicolinamide]
22 | 7.47 | 11.00 | 8.94 | 9.42 | C[C@H]1C[C@@H](c2ccncc2NC(=O)c2ccc(F)c(-c3c(F)cc(N4CCOCC4)cc3F)n2)C[C@@H](N)[C@@H]1O [Example 169, N-(4-((1R,3R,4R,5S)-3-amino-4-hydroxy-5-methylcyclohexyl)pyridin-3-yl)-6-(2,6-difluoro-4-morpholinophenyl)-5-fluoropicolinamide]
